Experimental data taken from the supplement of paper PMC4862054.

Assays:
Conditions in all cases: incubation time: 72 h
HDQ-P1 [1] = assay: normalised viability (% of control), CellTiter-Blue; higher = more viable cells (100 = DMSO, 0 = benzethonium chloride kill control)
Procedure: (§1)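 DSRT, CellTiter-Blue viability, 72 h incubation. Signal is normalised to DMSO and benzethonium chloride controls. Value is the normalised response at dose 1.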

DU-4475 [2] = assay: as above
Procedure: as §1

MDA-MB-436 [3] = assay: as above
Procedure: as §1

Hs578T [4] = assay: as above
Procedure: as §1

CAL-85-1 [5] = assay: as above
Procedure: as §1

CAL-148 [6] = assay: as above
Procedure: as §1

HCC1143 [7] = assay: as above
Procedure: as §1

MDA-MB-231 [8] = assay: as above
Procedure: as §1

HCC1599 [9] = assay: as above
Procedure: as §1

MFM-223 [10] = assay: as above
Procedure: as §1

BT-549 [11] = assay: as above
Procedure: as §1

CAL-51 [12] = assay: as above
Procedure: as §1

MDA-MB-468 [13] = assay: as above
Procedure: as §1

BT-474 [14] = assay: as above
Procedure: as §1

HCC1937 [15] = assay: as above
Procedure: as §1

CAL-120 [16] = assay: as above
Procedure: as §1

MDA-MB-453 [17] = assay: as above
Procedure: as §1

SK-BR-3 [18] = assay: as above
Procedure: as §1

HDQ-P1 [19] = assay: normalised response (% of control), CellTiter-Glo; higher = more viable cells (100 = DMSO, 0 = benzethonium chloride kill control)
Summary of the method: (§2)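 The table gives the normalised signal for a single concentration in each entry. Breast cancer cell lines were seeded (20 µl suspension) into 384-well plates holding compound at 5 concentrations in 10-fold steps over a compound-specific 10,000-fold range and incubated 72 h, then read for CellTox Green fluorescence (485/520 nm) and CellTiter-Glo luminescence. Normalisation on each plate used 0.1 % DMSO (100) and a positive kill control (0).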

DU-4475 [20] = assay: as above
Summary of the method: as §2

MDA-MB-436 [21] = assay: as above
Summary of the method: as §2

Hs578T [22] = assay: as above
Summary of the method: as §2

CAL-85-1 [23] = assay: as above
Summary of the method: as §2

CAL-148 [24] = assay: as above
Summary of the method: as §2

HCC1143 [25] = assay: as above
Summary of the method: as §2

MDA-MB-231 [26] = assay: as above
Summary of the method: as §2

HCC1599 [27] = assay: as above
Summary of the method: as §2

MFM-223 [28] = assay: as above
Summary of the method: as §2

BT-549 [29] = assay: as above
Summary of the method: as §2

CAL-51 [30] = assay: as above
Summary of the method: as §2

MCF-10A = assay: as above
Summary of the method: as §2

MDA-MB-468 [31] = assay: as above
Summary of the method: as §2

BT-474 [32] = assay: as above
Summary of the method: as §2

HCC1937 [33] = assay: as above
Summary of the method: as §2

CAL-120 [34] = assay: as above
Summary of the method: as §2

MDA-MB-453 [35] = assay: as above
Summary of the method: as §2

SK-BR-3 [36] = assay: as above
Summary of the method: as §2

Nc1nc(Cl)nc2c1ncn2[C@H]1C[C@H](O)[C@@H](CO)O1 [Cladribine] (0.1 nM)
normalised viability (HDQ-P1 [1]): 109%
normalised viability (DU-4475 [2]): 99.2%
normalised viability (MDA-MB-436 [3]): 107%
normalised viability (Hs578T [4]): 108%
normalised viability (CAL-85-1 [5]): 85.4%
normalised viability (CAL-148 [6]): 117%
normalised viability (HCC1143 [7]): 91.8%
normalised viability (MDA-MB-231 [8]): 74.9%
normalised viability (HCC1599 [9]): 88.7%
normalised viability (MFM-223 [10]): 89.3%
normalised viability (BT-549 [11]): 85.4%
normalised viability (CAL-51 [12]): 112%
normalised viability (MDA-MB-468 [13]): 98.4%
normalised viability (BT-474 [14]): 75.1%
normalised viability (HCC1937 [15]): 86.8%
normalised viability (CAL-120 [16]): 98.3%
normalised viability (MDA-MB-453 [17]): 112%
normalised viability (SK-BR-3 [18]): 95.5%
normalised response (HDQ-P1 [19]): 96.3%
normalised response (DU-4475 [20]): 105%
normalised response (MDA-MB-436 [21]): 148%
normalised response (Hs578T [22]): 105%
normalised response (CAL-85-1 [23]): 99.8%
normalised response (CAL-148 [24]): 97.7%
normalised response (HCC1143 [25]): 105%
normalised response (MDA-MB-231 [26]): 102%
normalised response (HCC1599 [27]): 91.3%
normalised response (MFM-223 [28]): 106%
normalised response (BT-549 [29]): 109%
normalised response (CAL-51 [30]): 114%
normalised response (MCF-10A): 106%
normalised response (MDA-MB-468 [31]): 101%
normalised response (BT-474 [32]): 99.6%
normalised response (HCC1937 [33]): 101%
normalised response (CAL-120 [34]): 94.3%
normalised response (MDA-MB-453 [35]): 105%
normalised response (SK-BR-3 [36]): 100%

Nc1ccn([C@@H]2O[C@H](CO)[C@@H](O)[C@@H]2O)c(=O)n1 [Cytarabine] (1 nM)
normalised viability (HDQ-P1 [1]): 96.5%
normalised viability (DU-4475 [2]): 111%
normalised viability (MDA-MB-436 [3]): 101%
normalised viability (Hs578T [4]): 93.9%
normalised viability (CAL-85-1 [5]): 101%
normalised viability (CAL-148 [6]): 106%
normalised viability (HCC1143 [7]): 108%
normalised viability (MDA-MB-231 [8]): 92.2%
normalised viability (HCC1599 [9]): 111%
normalised viability (MFM-223 [10]): 102%
normalised viability (BT-549 [11]): 86.8%
normalised viability (CAL-51 [12]): 89.8%
normalised viability (MDA-MB-468 [13]): 98.1%
normalised viability (BT-474 [14]): 75.4%
normalised viability (HCC1937 [15]): 95.3%
normalised viability (CAL-120 [16]): 96.1%
normalised viability (MDA-MB-453 [17]): 96.3%
normalised viability (SK-BR-3 [18]): 101%
normalised response (HDQ-P1 [19]): 96.6%
normalised response (DU-4475 [20]): 100%
normalised response (MDA-MB-436 [21]): 102%
normalised response (Hs578T [22]): 102%
normalised response (CAL-85-1 [23]): 98.8%
normalised response (CAL-148 [24]): 99.7%
normalised response (HCC1143 [25]): 97.6%
normalised response (MDA-MB-231 [26]): 93.3%
normalised response (HCC1599 [27]): 108%
normalised response (MFM-223 [28]): 103%
normalised response (BT-549 [29]): 93.5%
normalised response (CAL-51 [30]): 75.7%
normalised response (MCF-10A): 112%
normalised response (MDA-MB-468 [31]): 97.8%
normalised response (BT-474 [32]): 103%
normalised response (HCC1937 [33]): 99.3%
normalised response (CAL-120 [34]): 98.7%
normalised response (MDA-MB-453 [35]): 99.8%
normalised response (SK-BR-3 [36]): 101%

Cc1c2oc3c(C)ccc(C(=O)N[C@@H]4C(=O)N[C@H](C(C)C)C(=O)N5CCC[C@H]5C(=O)N(C)CC(=O)N(C)[C@@H](C(C)C)C(=O)O[C@@H]4C)c3nc-2c(C(=O)N[C@@H]2C(=O)N[C@H](C(C)C)C(=O)N3CCC[C@H]3C(=O)N(C)CC(=O)N(C)[C@@H](C(C)C)C(=O)O[C@@H]2C)c(N)c1=O [Dactinomycin] (0.1 nM)
normalised viability (HDQ-P1 [1]): 108%
normalised viability (DU-4475 [2]): 90.5%
normalised viability (MDA-MB-436 [3]): 94.9%
normalised viability (Hs578T [4]): 125%
normalised viability (CAL-85-1 [5]): 97.2%
normalised viability (CAL-148 [6]): 90.5%
normalised viability (HCC1143 [7]): 93.7%
normalised viability (MDA-MB-231 [8]): 91.6%
normalised viability (HCC1599 [9]): 79.1%
normalised viability (MFM-223 [10]): 104%
normalised viability (BT-549 [11]): 91.3%
normalised viability (CAL-51 [12]): 94%
normalised viability (MDA-MB-468 [13]): 92.2%
normalised viability (BT-474 [14]): 95.7%
normalised viability (HCC1937 [15]): 78.5%
normalised viability (CAL-120 [16]): 95.6%
normalised viability (MDA-MB-453 [17]): 94.6%
normalised viability (SK-BR-3 [18]): 96%
normalised response (HDQ-P1 [19]): 93.1%
normalised response (DU-4475 [20]): 103%
normalised response (MDA-MB-436 [21]): 123%
normalised response (Hs578T [22]): 110%
normalised response (CAL-85-1 [23]): 107%
normalised response (CAL-148 [24]): 97.4%
normalised response (HCC1143 [25]): 106%
normalised response (MDA-MB-231 [26]): 102%
normalised response (HCC1599 [27]): 90.6%
normalised response (MFM-223 [28]): 104%
normalised response (BT-549 [29]): 99.8%
normalised response (CAL-51 [30]): 101%
normalised response (MCF-10A): 104%
normalised response (MDA-MB-468 [31]): 92.2%
normalised response (BT-474 [32]): 96%
normalised response (HCC1937 [33]): 95.9%
normalised response (CAL-120 [34]): 94.2%
normalised response (MDA-MB-453 [35]): 102%
normalised response (SK-BR-3 [36]): 99%

COc1cccc2c1C(=O)c1c(O)c3c(c(O)c1C2=O)C[C@@](O)(C(=O)CO)C[C@@H]3O[C@H]1C[C@H](N)[C@H](O)[C@H](C)O1 [Doxorubicin] (0.1 nM)
normalised viability (HDQ-P1 [1]): 98.5%
normalised viability (DU-4475 [2]): 102%
normalised viability (MDA-MB-436 [3]): 112%
normalised viability (Hs578T [4]): 110%
normalised viability (CAL-85-1 [5]): 84.6%
normalised viability (CAL-148 [6]): 97.8%
normalised viability (HCC1143 [7]): 91.2%
normalised viability (MDA-MB-231 [8]): 96.8%
normalised viability (HCC1599 [9]): 82.8%
normalised viability (MFM-223 [10]): 95.6%
normalised viability (BT-549 [11]): 95%
normalised viability (CAL-51 [12]): 102%
normalised viability (MDA-MB-468 [13]): 104%
normalised viability (BT-474 [14]): 79.6%
normalised viability (HCC1937 [15]): 86.4%
normalised viability (CAL-120 [16]): 86.9%
normalised viability (MDA-MB-453 [17]): 102%
normalised viability (SK-BR-3 [18]): 90.3%
normalised response (HDQ-P1 [19]): 102%
normalised response (DU-4475 [20]): 104%
normalised response (MDA-MB-436 [21]): 101%
normalised response (Hs578T [22]): 101%
normalised response (CAL-85-1 [23]): 105%
normalised response (CAL-148 [24]): 103%
normalised response (HCC1143 [25]): 102%
normalised response (MDA-MB-231 [26]): 105%
normalised response (HCC1599 [27]): 119%
normalised response (MFM-223 [28]): 104%
normalised response (BT-549 [29]): 105%
normalised response (CAL-51 [30]): 99.3%
normalised response (MCF-10A): 98.8%
normalised response (MDA-MB-468 [31]): 103%
normalised response (BT-474 [32]): 107%
normalised response (HCC1937 [33]): 101%
normalised response (CAL-120 [34]): 100%
normalised response (MDA-MB-453 [35]): 120%
normalised response (SK-BR-3 [36]): 107%
